From paper PMC11477294, “In Vitro Profiling of the Antiviral Peptide TAT-I24” (International Journal of Molecular Sciences, 2024)
pIC50: −log10 of the molar value. Where a SMILES comes first, the peptide text is derived from it.

What was measured:
[1] = test system: human PBMCs; assay: LPS-induced cytokine release in PBMCs (ELISA); assay type: cell-based; conditions: three peptide concentrations, 0.25 µg/mL LPS, 24 h, duplicate, versus control without peptides
Protocol: Isolation of PBMCs was performed by adding 3 mL blood on a 3 mL layer of Histopaque-1077 (Sigma Aldrich, Schnelldorf, Germany) and centrifuged at 400× g for 30 min at room temperature with the lowest brake and acceleration settings. After centrifugation, plasma was aspirated and the PBMC layer was transferred to a 15 mL conical centrifugation tube. Cells were resuspended in 10 mL PBS, followed by centrifugation at 250× g for 10 min. The cell pellet was resuspended in 5 mL PBS, followed by centrifugation at 250× g for 10 min for a total of three times. Finally, the pellet was resuspended in 1 mL cell culture medium supplemented with 10% FCS. Cells were then seeded in a 48-well plate at 2.5 × 10^5 cells/125 µL per well, treated with 125 µL peptide dilutions in the absence and presence of 0.25 µg/mL lipopolysaccharide (LPS) from Escherichia coli (Sigma-Aldrich, Schnelldorf, Germany) and incubated at 37 °C for 24 h. Supernatants were then collected for subsequent analysis by ELISA.
ELISA was performed using human tumor necrosis factor-α (TNF-α) and interleukin-6 (IL-6) ELISA MAX^TM De Luxe Sets from Biolegend (San Diego, CA, USA) according to the manufacturer’s instructions. Supernatants were diluted 1:5 for TNF-α and 1:500 for IL-6.

[2] = Peptide stability in PBS or PBS with 10% FCS, read out as antiviral activity; assay type: in vitro ADME; conditions: 48 h at 37 °C versus −20 °C, two independent incubations in duplicate
Protocol: (§1) A baculovirus expressing luciferase under the control of the CMV promoter has been described previously. HEK293 cells were seeded at a density of 2 × 10^4 cells/100 µL per well in 96-well plates (Sarstedt, Germany). On the next day, cells were treated with a 1:3 dilution series of peptides and, without further pre-incubation, subsequently infected with baculovirus–luc at a multiplicity of infection (MOI) of 5. Cells were lysed 24 h post-infection using 20 µL Cell Culture Lysis Reagent (Promega, Mannheim, Germany). From the lysates, 10 µL was transferred to white 96-well plates, and luciferase was recorded using a luciferase assay system and a GloMax®-Multi Detection System (Promega, Mannheim, Germany).
NIH/3T3 cells were seeded at a density of 2 × 10^4 cells/100 µL per well in a 96-well plate (Sarstedt, Germany) and allowed to attach overnight. On the next day, cells were treated with a 1:3 dilutions series of peptides and, without further pre-incubation, subsequently infected with the MCMV strain delm157-luc rep. The MCMV stock was prepared and quantified as previously described. […] From the lysates, 10 µL was transferred to white 96-well plates, and luciferase was recorded using a Luciferase Assay System and a GloMax®-Multi Detection System (Promega, Mannheim, Germany). […]

[3] = test system: HEK293 cells; assay: Cell viability assay (CellTiter-Blue) in HEK293 cells; assay type: cell-based; conditions: 72 h at 37 °C, 3-fold dilution series starting with 20 µM, triplicate, non-linear regression (curve fit)
Protocol: HEK293 cells were seeded at a density of 2.5 × 10^3 cells/100 µL per well in a 96-well plate (Sarstedt, Germany). In addition, a serial 1:2 dilution of the cell suspension was added to each plate to generate a standard curve. On the next day, cells were treated with serial 1:3 peptide dilutions in triplicate and incubated for 72 h at 37 °C. Then, 20 µL of CellTiter-Blue® Cell Viability Assay (Promega, Mannheim, Germany) was added to each well and incubated at 37 °C for a further 1–2 h. Fluorescence was recorded using a GloMax®-Multi Detection System (Promega, Mannheim, Germany). The percentage of viable cells was calculated from the cell dilution series from each plate by linear regression analysis. The selectivity index was calculated using the following formula: SI = CC50/IC50.
Figure S1. Cell viability assay in HEK293 cells in the presence of peptides. Cells were incubated with 3 -fold dilution series of peptides starting with a concentration of 20 µM for 72 hours and measured using the Cell Titer Blue assay. Curve fitting of % viable cells of untrea ted control was performed using Graph Pad Prism softwar e.
(1 picture or pasted object on this page, not shown here)

[4] = Oligomerization/aggregation by SDS-PAGE with Coomassie stain; assay type: physicochemical; conditions: 48 h at 37 °C in PBS or PBS with 10% FCS
Protocol: For determination of peptide stability, 20 µg peptide was added to 50 µL PBS or PBS with 10% FCS and incubated for 48 h at 37 °C or stored at −20 °C. For non-reducing conditions, 4 µL peptide solution was mixed with 1 µL H2O and 5 µL Novex™ Tricine SDS Sample Buffer (2×) (ThermoFisher, Darmstadt, Germany). For reducing conditions, 4 µL peptide solution was mixed with 1 µL NuPAGE™ Sample Reducing Agent (10×) (Invitrogen by Thermo Fisher Scientific) and 5 µL Novex™ Tricine SDS Sample Buffer (2×). Samples were then heated to 85 °C for 10 min. A total of 10 µL was then loaded onto each well of 10–20% Novex™ Tricine, 1.0 mm, Mini Protein Gels (Invitrogen/ThermoFisher, Waltham, MA, USA) and run in 1× Novex™ Tricine SDS Running Buffer (Invitrogen/ThermoFisher, Waltham, MA, USA) for 90 min at 100 V. After electrophoresis, gels were fixed with 40% methanol and 10% acetic acid followed by staining with 0.1% Coomassie brilliant blue R250 (Sigma-Aldrich, Schnelldorf, Germany) in 40% methanol and 10% acetic acid for one hour and destaining using fixing solution.

[5] = test system: baculovirus expressing luciferase under the control of the CMV promoter; assay type: cell-based; conditions: luciferase reporter gene expression in HEK293 cells transduced with baculovirus-luc, MOI 5, 24 h post-infection; 1:3 peptide dilution series; non-linear regression; n = 8
Protocol: as §1

For `CC(C)C[C@H](NC(=O)[C@H](CS)NC(=O)[C@H](CCC(N)=O)NC(=O)[C@@H]1CCCN1C(=O)[C@@H]1CCCN1C(=O)[C@H](CCCNC(=N)N)NC(=O)[C@H](CCCNC(=N)N)NC(=O)[C@H](CCCNC(=N)N)NC(=O)[C@H](CCC(N)=O)NC(=O)[C@H](CCCNC(=N)N)NC(=O)[C@H](CCCNC(=N)N)NC(=O)[C@H](CCCCN)NC(=O)[C@H](CCCCN)NC(=O)[C@H](CCCNC(=N)N)NC(=O)CN)C(=O)N[C@@H](C)C(=O)N[C@@H](Cc1ccccc1)C(=O)N[C@@H](Cc1ccc(O)cc1)C(=O)N[C@@H](C)C(=O)N[C@@H](CS)C(=O)N[C@@H](Cc1ccccc1)C(=O)N[C@@H](CS)C(=O)O` [TAT-I24] (H-GRKKRRQRRRPPQCLAFYACFC-OH), which “LPS-induced IL-6 release” value [1] is on record?
Its value is “No significant differences”.

What about the “LPS-induced TNF-α release” value [1] of the same compound?
Its value is “No significant differences”.

What about the “antiviral activity after incubation of peptide with serum (serum stability)” value ([2]; 20 µg peptide in 50 µL PBS with 10% FCS, read-out baculovirus/HEK293 (24 h) and MCMV/NIH/3T3 (72 h) luciferase) of the same compound?
Its value is “slight reduction in antiviral activity”.

What about the “antiviral activity after incubation of peptide without serum” value ([2]; 20 µg peptide in 50 µL PBS, read-out baculovirus/HEK293 and MCMV/NIH/3T3 luciferase) of the same compound?
The value was “curve shaping for both peptides was altered”.

And the “HEK293 CC50” value [3]?
The value was 124000 nM.

And the “oligomer formation, SDS-PAGE under reducing conditions” value ([4]; 10–20% Tricine gel, Coomassie Brilliant Blue stain)?
The value was “additional weak higher molecular weight smear around 45 kDa”.

What about the “oligomer formation, SDS-PAGE under non-reducing conditions” value ([4]; SDS loading buffer without reducing agent, Coomassie stain) of the same compound?
Its value is “only faint bands of monomers”.

What about the pIC50 [5] of the same compound?
The pIC50 was 7.30.
